In PubChem BioAssay AID2060512 (Molecular Pharmacology Branch, DTP, NCI, 2025):

System: 186277-243-T-J2-PDC complex spheroid viability
Test: Anticancer human tumor 186277-243-T-J2-PDC patient-derived colon adenocarcinoma cell line growth inhibition [GQUAD]
Conditions: for IC50: curve of first compound; for viability, T/C: stronger effect = lower value
Excerpt: DNA G-quadruplex Stabilizer Agents in Combinations in Complex Spheroids
A high-throughput screen of multi-cell type tumor spheroids was designed to identify active combinations of DNA G-quadruplex stabilizer agents and targeted small molecules. Complex spheroids include a stromal component modeled by human endothelial cells (HUVEC) and fibroblasts modeled by human mesenchymal stem cells (MSCs). The concentration ranges selected for each drug and investigational agent were based upon clinically achievable concentrations if the clinical Cmax of the agent was known.
Compounds. The drugs and investigational agents: pidnarulex (CX-5461; NSC782164), APTO-253 (NSC789042), BRACO-19 (NSC847499), peposertib (NSC802822), ceralasertib (NSC780249), elimusertib (NSC800525), camonsertib (NSC841442), AZD-1390 (NSC803789), olaparib (NSC753686), talazoparib (NSC767125), ART-558 (NSC835418), sotorasib (NSC818433), MRTX-1133 (NSC836407), SN-38 (NSC673596), topotecan (NSC609699), etoposide (NSC141540), doxorubicin (NSC123127), gemcitabine (NSC613327), 5-fluorouracil (NSC19893), paclitaxel (NSC125973), vemurafenib (NSC761431), panobinostat (NSC761190), R-306465 (JNJ-16241199; NSC773264), adavosertib (NSC754352), TP-3654 (NSC805149), carboplatin (NSC241240), KSQ-4279 (NSC840948), and staurosporine (NSC755774) were obtained from the National Cancer Institute (NCI) Developmental Therapeutics Program Chemical Repository (34). The FDA-approved anticancer drug set is available from the NCI Developmental Therapeutics Program. […] The stock solutions were prepared in dimethyl sulfoxide (DMSO, Sigma-Aldrich, St. Louis, MO, cat. D2650) at 800-fold the tested concentration and stored at -70 degrees C prior to their use. All drugs and investigational agents were tested over a range starting from a high concentration at or near the clinical Cmax and decreasing in half-log increments. If the clinical Cmax for an agent had not been determined, the highest concentration tested was 10 microM.
2.3 Cell Culture. All cells were maintained in an incubator at 37 degrees C and 5% CO2 with 95% humidity. The PDC lines were cultured according to standard operating procedures established by the NCI PDMR. All PDCs were thawed and cultured in Matrigel-coated flasks prepared with a working solution of 1X Ham's F-12 nutrient mix, without supplementation (Invitrogen, cat. 11765054), 100 U/mL penicillin-streptomycin (Invitrogen, cat. 15140122), and 2.5% Matrigel (Corning Inc., cat. 354248) for the first three passages. The 857933-349-R-J2-PDC line was cultured in 6C/Colon 1B media, which includes advanced DMEM/F-12 (Thermo Fisher Scientific, cat. 12634028), 10 mM HEPES (Thermo Fisher Scientific, cat. 15630080), 1X GlutaMAX supplement (Thermo Fisher Scientific, cat. 35050061), 0.1 mg/mL primocin (InvivoGen, cat. ant-pm-2), 10% defined fetal bovine serum, heat inactivated (HyClone Laboratories Inc., cat. SH30070.03HI), 50% L-WRN conditioned media (ATCC, cat. CRL-3276), 1.25 mM N-Acetyl-L-cysteine (Sigma-Aldrich, cat. A9165), 10 mM nicotinamide (Sigma-Aldrich, cat. N0636), 1X B-27 supplement (Thermo Fisher Scientific, cat. 17504044), 1X N-2 supplement (Thermo Fisher Scientific, cat. 17502048), 10 microM Y-27632 dihydrochloride (Tocris Bioscience, cat. 1254), and 50 ng/mL human EGF recombinant protein (Thermo Fisher Scientific, cat. PHG0311). The 485176-168-R4-J1-PDC line was cultured in Panc media, which includes all 6C/Colon 1B media components plus 100 ng/mL human FGF-10 (Thermo Fisher Scientific, cat. 100-26), 500 nM SB-431542 (Selleckchem, cat. S1067), and gastrin (Tocris, cat. 3006).
[…]

[1] = second compound 0.0316 µM, first compound 0.0316 µM
[2] = second compound 0.0316 µM, first compound 0.316 µM
[3] = second compound 0.1 µM, first compound 0.0316 µM
[4] = second compound 0.1 µM, first compound 0.316 µM
[5] = second compound 0.316 µM, first compound 0.0316 µM
[6] = second compound 0.316 µM, first compound 0.316 µM
[7] = second compound 1 µM, first compound 0.0316 µM
[8] = second compound 1 µM, first compound 0.316 µM
[9] = second compound 3.16 µM, first compound 0.0316 µM
[10] = second compound 3.16 µM, first compound 0.316 µM
[11] = second compound 10 µM, first compound 0.0316 µM
[12] = second compound 10 µM, first compound 0.316 µM
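Note: spheroids exposed to drugs for 7 days.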
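Throughout, for viability, T/C: 100% = DMSO vehicle control viability.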

Which results are given for `CC(C)n1c(=O)n(C)c2cnc3cc(F)c(-c4ccc(OCCCN5CCCCC5)nc4)cc3c21` + Cc1cnc(CNC(=O)c2c(=O)c3ccc(N4CCCN(C)CC4)nc3n3c2sc2ccccc23)cn1?
IC50 (second compound 0.0316 µM): > 10000 nM; IC50 (second compound 0.1 µM): > 10000 nM; IC50 (second compound 0.316 µM): 3600 nM; IC50 (second compound 1 µM): 144 nM; IC50 (second compound 3.16 µM): < 31.6 nM; IC50 (second compound 10 µM): < 31.6 nM; viability, T/C [1]: 90.6%; viability, T/C (second compound 0.0316 µM, first compound 0.1 µM): 79.9%; viability, T/C [2]: 73.5%; viability, T/C (second compound 0.0316 µM, first compound 1 µM): 69.3%; viability, T/C (second compound 0.0316 µM, first compound 3.16 µM): 75%; viability, T/C (second compound 0.0316 µM, first compound 10 µM): 76.2%; viability, T/C [3]: 70.4%; viability, T/C (second compound 0.1 µM, first compound 0.1 µM): 54.4%; viability, T/C [4]: 70.6%; viability, T/C (second compound 0.1 µM, first compound 1 µM): 73.1%; viability, T/C (second compound 0.1 µM, first compound 3.16 µM): 59.4%; viability, T/C (second compound 0.1 µM, first compound 10 µM): 46.5%; viability, T/C [5]: 67.8%; viability, T/C (second compound 0.316 µM, first compound 0.1 µM): 67.6%; viability, T/C [6]: 48.8%; viability, T/C (second compound 0.316 µM, first compound 1 µM): 70.8%; viability, T/C (second compound 0.316 µM, first compound 3.16 µM): 46.5%; viability, T/C (second compound 0.316 µM, first compound 10 µM): 41.2%; viability, T/C [7]: 49.2%; viability, T/C (second compound 1 µM, first compound 0.1 µM): 46.3%; viability, T/C [8]: 52.2%; viability, T/C (second compound 1 µM, first compound 1 µM): 54.8%; viability, T/C (second compound 1 µM, first compound 3.16 µM): 52.3%; viability, T/C (second compound 1 µM, first compound 10 µM): 42.5%; viability, T/C [9]: 43.7%; viability, T/C (second compound 3.16 µM, first compound 0.1 µM): 39.8%; viability, T/C [10]: 49.5%; viability, T/C (second compound 3.16 µM, first compound 1 µM): 39.7%; viability, T/C (second compound 3.16 µM, first compound 3.16 µM): 40.6%; viability, T/C (second compound 3.16 µM, first compound 10 µM): 36.4%; viability, T/C [11]: 31.8%; viability, T/C (second compound 10 µM, first compound 0.1 µM): 47.5%; viability, T/C [12]: 40%; viability, T/C (second compound 10 µM, first compound 1 µM): 39.7%; viability, T/C (second compound 10 µM, first compound 3.16 µM): 38.3%; viability, T/C (second compound 10 µM, first compound 10 µM): 35.6%

Which IC50 (second compound 0.0316 µM) does the source give for `CC[C@@]1(O)C(=O)OCc2c1cc1n(c2=O)Cc2cc3c(CN(C)C)c(O)ccc3nc2-1` + Cc1cnc(CNC(=O)c2c(=O)c3ccc(N4CCCN(C)CC4)nc3n3c2sc2ccccc23)cn1 here?
Its IC50 is > 316 nM.

What about the IC50 (second compound 0.1 µM) of the same molecule?
Its IC50 is 263 nM.

What about the IC50 (second compound 0.316 µM) of the same molecule?
The IC50 was 176 nM.

And the IC50 (second compound 1 µM)?
The IC50 was < 0.999 nM.

What about the IC50 (second compound 3.16 µM) of the same molecule?
The IC50 was < 0.999 nM.

What about the IC50 (second compound 10 µM) of the same molecule?
Its IC50 is < 0.999 nM.

What about the viability, T/C (second compound 0.0316 µM, first compound 0.000999 µM) of the same molecule?
The viability, T/C was 95.2%.

What about the viability, T/C (second compound 0.0316 µM, first compound 0.00316 µM) of the same molecule?
Its viability, T/C is 85.6%.

And the viability, T/C (second compound 0.0316 µM, first compound 0.00999 µM)?
The viability, T/C was 82.4%.

What about the viability, T/C [1] of the same molecule?
The viability, T/C was 77.1%.

And the viability, T/C (second compound 0.0316 µM, first compound 0.0999 µM)?
Its viability, T/C is 64.4%.

What about the viability, T/C [2] of the same molecule?
Its viability, T/C is 52.8%.

What about the viability, T/C (second compound 0.1 µM, first compound 0.000999 µM) of the same molecule?
Its viability, T/C is 79.6%.

What about the viability, T/C (second compound 0.1 µM, first compound 0.00316 µM) of the same molecule?
Its viability, T/C is 74.4%.

And the viability, T/C (second compound 0.1 µM, first compound 0.00999 µM)?
Its viability, T/C is 87.5%.

And the viability, T/C [3]?
The viability, T/C was 60.9%.

What about the viability, T/C (second compound 0.1 µM, first compound 0.0999 µM) of the same molecule?
The viability, T/C was 66.6%.

And the viability, T/C [4]?
The viability, T/C was 47.1%.

And the viability, T/C (second compound 0.316 µM, first compound 0.000999 µM)?
Its viability, T/C is 68.1%.

What about the viability, T/C (second compound 0.316 µM, first compound 0.00316 µM) of the same molecule?
Its viability, T/C is 56.5%.

What about the viability, T/C (second compound 0.316 µM, first compound 0.00999 µM) of the same molecule?
The viability, T/C was 71.3%.

What about the viability, T/C [5] of the same molecule?
Its viability, T/C is 70.7%.

And the viability, T/C (second compound 0.316 µM, first compound 0.0999 µM)?
Its viability, T/C is 62%.

What about the viability, T/C [6] of the same molecule?
Its viability, T/C is 36.6%.

What about the viability, T/C (second compound 1 µM, first compound 0.000999 µM) of the same molecule?
The viability, T/C was 47.9%.

What about the viability, T/C (second compound 1 µM, first compound 0.00316 µM) of the same molecule?
The viability, T/C was 38.1%.

What about the viability, T/C (second compound 1 µM, first compound 0.00999 µM) of the same molecule?
The viability, T/C was 49.7%.

And the viability, T/C [7]?
The viability, T/C was 50.1%.

And the viability, T/C (second compound 1 µM, first compound 0.0999 µM)?
The viability, T/C was 52.2%.

What about the viability, T/C [8] of the same molecule?
The viability, T/C was 38.2%.

And the viability, T/C (second compound 3.16 µM, first compound 0.000999 µM)?
The viability, T/C was 49.6%.

And the viability, T/C (second compound 3.16 µM, first compound 0.00316 µM)?
Its viability, T/C is 44.2%.

What about the viability, T/C (second compound 3.16 µM, first compound 0.00999 µM) of the same molecule?
The viability, T/C was 46.7%.

And the viability, T/C [9]?
The viability, T/C was 40.7%.

What about the viability, T/C (second compound 3.16 µM, first compound 0.0999 µM) of the same molecule?
The viability, T/C was 46.2%.

What about the viability, T/C [10] of the same molecule?
The viability, T/C was 27.7%.

What about the viability, T/C (second compound 10 µM, first compound 0.000999 µM) of the same molecule?
The viability, T/C was 39.6%.

What about the viability, T/C (second compound 10 µM, first compound 0.00316 µM) of the same molecule?
Its viability, T/C is 37.4%.

What about the viability, T/C (second compound 10 µM, first compound 0.00999 µM) of the same molecule?
Its viability, T/C is 47.1%.

What about the viability, T/C [11] of the same molecule?
The viability, T/C was 41.8%.

What about the viability, T/C (second compound 10 µM, first compound 0.0999 µM) of the same molecule?
Its viability, T/C is 41.6%.

And the viability, T/C [12]?
The viability, T/C was 36.4%.
